Earlier results as cited in patent publication US20210322558A1, “PHENYLEPHRINE RESINATE PARTICLES AND USE THEREOF IN PHARMACEUTICAL FORMULATIONS” (JOHNSON & JOHNSON CONSUMER INC., priority 2013, published 2021).

Key:
[1] = 30 mg dose administered orally over eight hours

fraction of a therapeutic dose excreted unchanged in the urine | metabolized to m-hydroxy-phenylglycol-sulfate, % of the dose [1] | metabolized to m-hydroxymandelic acid, % of the dose [1] | metabolized to phenylephrine-glucuronide, % of the dose [1] | metabolized to phenylephrine-sulfate, % of the dose [1] | Structure (SMILES)
Less than 9% | – | – | – | – | CC(=O)Nc1ccc(O)cc1 [acetaminophen]
– | 6% | 30% | 12% | 47% | CNC[C@H](O)c1cccc(O)c1.Cl [phenylephrine, (R)-1-(3-hydroxyphenyl)-2-methylaminoethanol]
